We go through 16 molecules from PubChem BioAssay (NCI).

Among the test systems are HOP-92 NSCLC; 786-0 renal; ACHN renal; HT29 colon; PC-3 prostate; U251 CNS; CCRF-CEM leukemia; SW-620 colon; LOX IMVI melanoma.
Holding throughout (assay): inhibition of tumour cell growth, NCI panel, 48 h

Several values for one entry are separate records, joined by “and”; a condition that tells them apart may be missing. Equal entries are not always repeated.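 Grown in 96-well plates, cells were treated for 48 hours with each compound at five concentrations. Insufficient inhibition: endpoint recorded as highest concentration tested. GI50 marks 50% less growth. The concentration for full growth arrest is given as TGI.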

With `COC(=O)c1ccc(NC(N)=NCC(C)(C)COc2ccc(C(F)(F)F)cc2)nc1`, the GI50 in the assay with HOP-92 NSCLC is 1.23 µM; with 786-0 renal it was 1.46 µM; in the assay with ACHN renal, 1.59 µM; in the assay on HT29 colon, 1.66 µM; with PC-3 prostate, 1.38 µM; in the assay with U251 CNS, 1.61 µM. Also, the TGI in the assay on HOP-92 NSCLC stood at 2.57 µM; in the assay with 786-0 renal, 2.83 µM; in the assay on ACHN renal, 2.93 µM; in the assay on HT29 colon, 3.21 µM; with PC-3 prostate, 2.75 µM; in the assay with U251 CNS it was 3.05 µM.

With `Cc1cc(Cl)ccc1N1C(=O)C(=O)C(c2nc3ccccc3o2)C(=O)C1=O`, the TGI in the assay on HOP-92 NSCLC, in the assay with CCRF-CEM leukemia, with 786-0 renal, with ACHN renal, with SW-620 colon and in the assay on HT29 colon was more than 100 µM in each case. In the assay on U251 CNS, this molecule gave a TGI of more than 100 µM.

On to `CC1NCCc2c1[nH]c1cc(O)ccc21` (centres undefined), for which the TGI with HOP-92 NSCLC, in the assay with CCRF-CEM leukemia, in the assay with 786-0 renal, in the assay with LOX IMVI melanoma, with ACHN renal and with SW-620 colon was more than 100 µM each time. In the assay on HT29 colon, this molecule gave a TGI of more than 100 µM.

Regarding `CCOC(=O)N1CCc2cc(OC)c(OC)cc2/C1=C/c1ccc(OC)c(OC)c1`, the TGI in the assay with HOP-92 NSCLC, in the assay with CCRF-CEM leukemia, in the assay with 786-0 renal, in the assay on LOX IMVI melanoma, in the assay with ACHN renal and in the assay with SW-620 colon was more than 100 µM throughout. Further, the figures for the TGI in the assay on HT29 colon and in the assay on U251 CNS were 98.4 µM and more than 100 µM, respectively.

As to `CN(C)CCC(=O)N1CCc2c([nH]c3ccccc23)C1c1cccnc1` (centres undefined), the TGI in the assay on HOP-92 NSCLC, with CCRF-CEM leukemia, in the assay with 786-0 renal, in the assay on LOX IMVI melanoma, with ACHN renal and with SW-620 colon was more than 100 µM throughout. Further, the TGI with HT29 colon and in the assay with U251 CNS was more than 100 µM in each case.

As for `CN(C)CCC(/C=C/c1ccccc1)=N\Nc1ccc(Cl)cc1`, the TGI came to 8.82 µM with HOP-92 NSCLC; 11 µM with CCRF-CEM leukemia; 6.26 µM in the assay on 786-0 renal; 3.57 µM with LOX IMVI melanoma; 5.15 µM in the assay with ACHN renal; 14.7 µM with SW-620 colon. Also, the TGI was determined as 13.9 µM with HT29 colon and 5.51 µM in the assay with U251 CNS.

For the molecule `C=C[Si](C)(C)COC(=O)/C(C#N)=C/C=C/c1ccccc1`, the TGI in the assay on HOP-92 NSCLC, with CCRF-CEM leukemia, with 786-0 renal, with ACHN renal, in the assay with SW-620 colon and in the assay on HT29 colon was more than 100 µM in each case. For the same molecule, in the assay on U251 CNS, the TGI is more than 100 µM.

As to `NC1=NCC(c2ccccn2)C1c1ccc(F)cc1` (centres undefined), the TGI in the assay with HOP-92 NSCLC, in the assay on CCRF-CEM leukemia, with 786-0 renal, in the assay with LOX IMVI melanoma, in the assay with ACHN renal and in the assay on SW-620 colon was more than 100 µM in each case. The TGI in the assay on HT29 colon and with U251 CNS was more than 100 µM in each case.

As to `Cc1cc(Cl)cc2c1NC(=O)C2(O)CC(=O)c1ccc(F)cc1` (centres undefined), the TGI in the assay on HOP-92 NSCLC, in the assay with 786-0 renal, in the assay on LOX IMVI melanoma, in the assay on ACHN renal, in the assay with SW-620 colon and in the assay with HT29 colon was more than 100 µM in each case. For the same molecule, in the assay with U251 CNS, the TGI is more than 100 µM.

As to `NC(=NCCO)c1ccc(N2CCCN(c3ccc(C(N)=NCCO)cc3)CC2)cc1`, the GI50 in the assay with 786-0 renal, with LOX IMVI melanoma, in the assay with ACHN renal, with HT29 colon and with U251 CNS was more than 100 µM in each case. Further, the TGI in the assay with 786-0 renal, in the assay on LOX IMVI melanoma, in the assay with ACHN renal, with HT29 colon and in the assay with U251 CNS was more than 100 µM in each case.

With `Cc1cccc(Cl)c1NC(=O)c1cccc([N+](=O)[O-])c1O`, the TGI with HOP-92 NSCLC was 69.6 µM; in the assay on CCRF-CEM leukemia, more than 100 µM; in the assay with 786-0 renal, more than 100 µM; with LOX IMVI melanoma, 82.9 µM; with ACHN renal, more than 100 µM; in the assay with SW-620 colon, more than 100 µM. Further, the TGI in the assay with HT29 colon and in the assay with U251 CNS was more than 100 µM in each case.

For `Cc1nc2ccccc2c(/C=C/c2ccccc2)c1C(=O)/C=C/c1ccc(Cl)cc1`, the GI50 with CCRF-CEM leukemia was 0.481 µM; in the assay on 786-0 renal it was 1.58 µM; in the assay with LOX IMVI melanoma it was 1.23 µM; with SW-620 colon, 1.71 µM; in the assay with HT29 colon it was 0.9 µM; with U251 CNS, 1.51 µM. Also, the TGI in the assay on CCRF-CEM leukemia turned out to be 5.24 µM; in the assay on 786-0 renal, 2.99 µM; in the assay on LOX IMVI melanoma, 2.49 µM; with SW-620 colon, 5.72 µM; in the assay on HT29 colon, 6.36 µM; with U251 CNS, 2.88 µM.

In the case of `O=[N+]([O-])c1ccc2nc3ccscc-3c2c1`, the TGI with HOP-92 NSCLC was 25.7 µM; in the assay with CCRF-CEM leukemia, more than 100 µM; with 786-0 renal it was more than 100 µM; with LOX IMVI melanoma, 85.9 µM; in the assay on ACHN renal, more than 100 µM; in the assay on SW-620 colon, more than 100 µM. Besides, the TGI in the assay on HT29 colon was more than 100 µM; with U251 CNS, 85.3 µM.

In the case of `CC(=O)OCC1OC(n2c(=S)n(-c3ccccc3)c(=O)c3cc(Br)ccc32)C(OC(C)=O)C(OC(C)=O)C1OC(C)=O` (centres undefined), the GI50 in the assay with HOP-92 NSCLC was 22.1 µM and > 100 µM. Further, the TGI in the assay on HOP-92 NSCLC, with CCRF-CEM leukemia, with 786-0 renal, in the assay with LOX IMVI melanoma, in the assay on ACHN renal and in the assay on SW-620 colon was more than 100 µM throughout. In addition, the TGI with HT29 colon and in the assay on U251 CNS was more than 100 µM in each case.

Consider `Cc1cccc2cc3cccc(C(=O)NCCN(C)C)c3nc12`, for which the TGI turned out to be 1.38 µM in the assay on HOP-92 NSCLC; 3.53 µM in the assay on CCRF-CEM leukemia; 11.5 µM in the assay on 786-0 renal; 0.568 µM in the assay on LOX IMVI melanoma; 10.5 µM in the assay with SW-620 colon; 3.94 µM with HT29 colon. In addition, the TGI with U251 CNS was 2.15 µM.

In the case of `O=C1[C@@H]2C(c3ccncc3)=NO[C@@H]2C(=O)N1c1ccc(Cc2ccc(N3C(=O)[C@H]4C(c5ccncc5)=NO[C@H]4C3=O)cc2)cc1`, the TGI in the assay with HOP-92 NSCLC, with CCRF-CEM leukemia, in the assay on 786-0 renal, in the assay with LOX IMVI melanoma, with ACHN renal and in the assay on SW-620 colon was more than 100 µM each time. The TGI in the assay on HT29 colon and with U251 CNS was more than 100 µM each time.
